How the values were obtained:
Assay type in all cases: in vivo, rat
[1] = system: Western diet fed Sprague Dawley rats; test: Fed plasma triglyceride (TG), Western diet fed rats, oral dosing; settings: 2 hours post dose; for increase in plasma TG in the fed state, relative to vehicle-administered Western diet fed rats: oral monotherapy; for reduction of plasma TG in the fed state, relative to vehicle-administered Western diet fed rats: oral
Experimental: (§1) A randomized, vehicle-controlled, 8-parallel arm study was conducted in male Sprague-Dawley rats (Charles River (Boston, MA)) to obtain circulating and hepatic TG levels. Standard laboratory conditions were used to house 96 rats (˜200 g); they were double housed and kept under 12:12-hour reverse light-dark schedule (lights off at 8:00 AM). Rats were randomized into chow or Western diet groups and dose groups upon arrival and were given a 14-day lead-in period on either standard rat chow or Western diet prior to the start of the study. Standard Laboratory Rodent chow diet, 5053, was from LabDiet (PMI, St Louis, Missouri). Western Diet, D12079Bi, was from Research Diets (New Brunswick, New Jersey).
For these studies, vehicle was prepared to make a 0.5% (wt/volume) of methyl cellulose (MC, Sigma Aldrich; 274429) in deionized water. The stock solutions with either Compound A (prepared from the tris salt) or Compound D were prepared with the respective compound to provide a concentration such that 10 ml of the solution would deliver the desired mg/kg dosage amount, where the average weight of the rats used was about 200 g.
Starting on Day 1 of the study, rats were dosed orally (10 mL/kg) with either vehicle control (0.5% MC (wt/volume %) in dionized water), low or high doses of Compound A (1 mg/kg or 10 mg/kg QD, respectively), low or high doses of Compound D (5 mg/kg or 30 mg/kg BID respectively), or co-administration of low doses (Compound A at 1 mg/kg QD and Compound D at 5 mg/kg BID), or co-administration of high doses (Compound A at 10 mg/kg QD and Compound D at 30 mg/kg BID)
Fed plasma analytes: Blood for determining fed plasma TG concentrations was collected 2 hours post dose (2 hours into the dark cycle) via lateral tail vein, transferred to BD Microtainer tubes coated with dipotassium ethylenediaminetetraacetic acid (K2EDTA) (PN365974), and centrifuged at 4° C. The resulting plasma samples were then analyzed on a Siemens Chemistry XPT clinical analyzer (Malven, PA) using Siemens triglycerides_2 assay reagents (ref 10335892).

[2] = system: acetyl-CoA carboxylase (ACC1); test: Hepatic lipogenic gene expression (qPCR), Western diet fed rats: ACC1; settings: Actb housekeeping gene, Day 28 liver
Experimental: as §1
(§2) Starting on Day 1 of the study, rats were dosed orally (10 mL/kg) with either vehicle control (0.5% MC (wt/volume %) in dionized water), low or high doses of Compound A (1 mg/kg or 10 mg/kg QD, respectively), low or high doses of Compound D (5 mg/kg or 30 mg/kg BID respectively), or co-administration of low doses (Compound A at 1 mg/kg QD and Compound D at 5 mg/kg BID), or co-administration of high doses (Compound A at 10 mg/kg QD and Compound D at 30 mg/kg BID) […]
(§3) Another portion of the pulverized liver was processed and analyzed for lipogenic gene expression. Rat taqman probes against ACC1, FASN, SCD1, PCSK9 and SREBP-1c were all assessed using Actb as housekeeping gene on qPCR.

SCD1 = test: Hepatic lipogenic gene expression (qPCR), Western diet fed rats: SCD1; settings: Actb housekeeping gene, Day 28 liver
Experimental: as §1, §2, §3

[3] = system: CDAHFD fed Male Wistar Hann rats; test: Liver stiffness by shearwave elastography, CDAHFD fed rats; settings: twice daily for 6 weeks, Compound A 5 mg/kg, Compound D 30 mg/kg, or co-administration
Experimental: (§4) A randomized, vehicle-controlled, 5-parallel arm study was conducted in male Wistar-Han rats (Charles River (Boston, MA)) fed a choline-deficient and high fat diet (CDAHFD) (Research diets; A16092003) to identify differences in improvements in markers of hepatic inflammation and fibrosis when administering either Compound A or Compound D alone as monotherapy or in combination. Standard laboratory conditions were used to house 60 rats (˜200 g); they were double housed and kept under 12:12-hour reverse light-dark schedule (lights off at 8:00 AM). Rats were fed choline deficient and high fat diet (CDAHFD) beginning 6-weeks prior to initiation of the study. Rats, randomized into 4 dosing groups (n=12/group), received twice daily administration of vehicle, Compound A (5 mg/kg) monotherapy, Compound D (30 mg/kg) monotherapy, or co-administration Compound A (5 mg/kg) and Compound D (30 mg/kg) for a period of 6-weeks. Animals (n=12) remaining on normal chow throughout the study and administered twice-daily vehicle were used as a control group. Blood samples were collected prior to starting compound administration and 3- and 6-week post compound administration for the assessment of circulating markers. […] Histology was assessed following 6-weeks of drug administration which corresponded to 12 weeks on the CDAHFD. […]

[4] = system: Ionized calcium binding adaptor molecule 1 (Iba1); test: Hepatic Iba1 staining, CDAHFD fed rats; settings: twice daily for 6 weeks; Compound A 5 mg/kg, Compound D 30 mg/kg, or co-administration; 12 weeks on CDAHFD
Experimental: as §4, with “6-weeks.” for “6-weeks. Animals (n=12) remaining on normal chow throughout the study and administered twice-daily vehicle were used as a control group. Blood samples were collected prior to starting compound administration and 3- and 6-week post compound administration for the assessment of circulating markers.”
Following the 12-weeks on CDAHFD, the animals were sacrificed by CO2 asphyxiation. […] A portion of the pulverized liver sample from each animal was processed and analyzed for gene expression markers of fibrogenesis. Rat taqman probes against […]SMA and COL1A1 were all assessed using Actb as housekeeping gene on qPCR. […]

| SMILES | increase in plasma TG in the fed state, relative to vehicle-administered Western diet fed rats ([1]; high dose (Compound A 10 mg/kg QD)) | increase in plasma TG in the fed state, relative to vehicle-administered Western diet fed rats ([1]; low dose (Compound A 1 mg/kg QD)) | hepatic ACC1 gene expression relative to Western Diet fed and vehicle treated animals [2] | hepatic SCD1 gene expression relative to Western Diet fed and vehicle treated animals (SCD1) | liver stiffness (shearwave elastography, kPa) [3] | reduction of Iba1 staining [4] | reduction of plasma TG in the fed state, relative to vehicle-administered Western diet fed rats ([1]; high dose (Compound D 30 mg/kg BID; co-administration: Compound A 10 mg/kg QD and Compound D 30 mg/kg BID)) | reduction of plasma TG in the fed state, relative to vehicle-administered Western diet fed rats ([1]; low dose (Compound D 5 mg/kg BID; co-administration: Compound A 1 mg/kg QD and Compound D 5 mg/kg BID)) |
| --- | --- | --- | --- | --- | --- | --- | --- | --- |
| COc1cc(C(=O)N2CCC3(CC2)CC(=O)c2c(cnn2C(C)C)C3)cc(-c2ccc(C(=O)O)cc2)n1 [Compound A, 4-(4-(1-isopropyl-7-oxo-1,4,6,7-tetrahydrospiro[indazole-5,4′-piperidine]-1′-carbonyl)-6-methoxypyridin-2-yl)benzoic acid] | 1.3 fold | 1.7 fold | trended to further increase | trended to further increase | reduced liver stiffness | 15% | – | – |
| CCOc1cccnc1Oc1cncc(-c2ncc(C(=O)N[C@H]3CCOC3)cn2)c1 [Compound D, (S)-2-(5-((3-ethoxypyridin-2-yl)oxy)pyridin-3-yl)-N-(tetrahydrofuran-3-yl)pyrimidine-5-carboxamide] | – | – | decreased expression | decreased expression | reduced liver stiffness | did not alter | 63% | 55% |

Reference: patent publication US12247022B2, “Combinations for treatment of NASH/NAFLD and related diseases” (Pfizer Inc., priority 2018, dated 2025)
